“And” between values parts separate entries of the source, which are not always exact repeats. Equal entries are not always repeated. Where two headings read alike, the source gives them in different places.

Series [1] can be described thus: Single oral dose plasma pharmacokinetics and elimination of APAZA and metabolites in mice. The series is classed as in vivo, male CD-1 mice. The method, then: Initial single dose pharmacokinetic studies with the APAZA™ compound have been conducted in dogs and mice. A study was completed in order to determine the plasma pharmacokinetics and elimination of the APAZA™ compound and its metabolites (5-ASA, 4-APAA, 5-aceASA and 4-aceAPAA) following single oral dose administration to male CD-1 mice. […] When normalized to molar values, the Cmax values for all the APAZA™ metabolites were less than APAZA™; the values ranged from 2.68 to 13.8 μM. However, the normalized APAZA™ AUC∞ value was not greater than all the other metabolites; these values ranged from […]. […] The Tmax values for APAZA™ and its metabolites were 1 hour and 4 hours, respectively.

Series [2] deals with DNBS colitis. The series is described as follows: DNBS colitis in the rat, equimolar rectal doses of 5-ASA, 4-APAA and mixture. The conditions noted are these: for average severity score for necrosis, Adventitia / average severity score for necrosis, Mucosa / average severity score for necrosis, Muscularis / average severity score for necrosis, Submucosa: colon histology, scale 1-5, intrarectal twice daily for four days; for reduction in colon:body weight [% BW] / reduction of adhesion scores: rectal b.i.d. 4 days; for reduction in colon:body weight [% BW]: 5-ASA 50 mg/kg, 4-APAA 49.5 mg/kg, mixture 50+49.5 mg/kg; for reduction of adhesion scores: vs vehicle/DNBS. The series is classed as in vivo, male Lewis rats. An excerpt:
The purpose of this study was to histologically evaluate and compare the effects of three different therapeutic agents administered intrarectally (twice daily for four days) to male Lewis rats following intrarectal administration of dinitrobenzene sulfonic acid (DNBS). DNBS induced colitis in rats according to an established experimental model (see, for example, Bertran et al., “Intracolonic administration of zileuton, a selective 5-lipoxygenase inhibitor, accelerates healing in a rat model of chronic colitis,” Gut. 38(6):899-904 (1996), and Blau et al., “Relation between colonic inflammation severity and total low-molecular-weight antioxidant profiles in experimental colitis,” Dig Dis Sci. 45(6):1180-1187 (2000), the entire disclosures of which are incorporated herein by reference). SHAM and DNBS groups served as negative and positive controls, respectively.
Trimmed specimens of colon from 27 male rats were tested, including microtoming, and hematoxylin and eosin staining. The resulting 27 slides (1 transverse section per slide) were examined microscopically. Except for one rat from the SHAM group and one rat from the DNBS group, all slides had their labels taped over to facilitate blind reading. Lesions were graded on a scale of 1-5 (1=minimal; 2=mild; 3=moderate; 4=moderately-severe; 5=severe).
Because the pattern of necrosis often varied from section to section, the individual intestinal layers were scored separately.
Dinitrobenzene sulfonic acid (DNBS) colitis was induced (no ether anesthesia) in 4 groups 4 of 6 Lewis rats each. One DNBS group was dosed with vehicle (0.7% methyl cellulose) as well as an additional sham group of 6 animals that received a saline enema instead of DNBS. Intrarectal (ir) dosing was performed in conscious animals b.i.d. for 4 days. Drug treatments were as follows: • 5-aminosalicylic acid (5-ASA): 50 mg/kg • 4-aminophenylacetic acid (4-APAA): 49.5 mg/kg (equimolar to 5-ASA) • Mixture: 5-ASA+4-APAA: 50 mg/kg+49.5 mg/kg
Drugs were suspended in the above mentioned vehicle and staff blinded to drug groups. Daily weights and diarrhea scores were recorded. On the 5th day post-irritant rats were sacrificed, laparotomies performed and scored for intestinal adhesions and strictures; colectomized and colon weights recorded, colons opened longitudinally and inflammation/ulcerations scored.
The anti-inflammatory effects of 3 different treatments were compared in a DNBS model of colitis in 30 male Lewis rats weighing between 218 and 260 grams.
Animals were divided into 5 groups of 6 animals in each group: • 0.7% methylcellulose (vehicle)+normal saline • 0.7% methylcellulose (vehicle)+ethanolic solution of 2,4-dinitrobenzenesulfonic acid (DNBS) 30 mg • 5-ASA at 100 mg/kg·day+DNBS 30 mg/rectally • 4-APAA at 99 mg/kg·day+DNBS 30 mg/rectally • 5-ASA+4-APAA mixture (APAZA™) at 199 mg/kg·day+DNBS 30 mg/rectally
Experimental colitis was induced under light anesthesia (ketamine/xylazine) in 4 of 5 groups by instilling DNBS (30 mg) rectally at a volume of 0.5 mL to fasted rats. Each group of animals received rectal twice daily (bid) doses of either vehicle (0.7% methylcellulose) or test compounds (5-ASA, 4-APAA or APAZA™) for 4 days beginning 24 hours after either the normal saline or DNBS irritant was instilled. Body weight and incidence of diarrhea were recorded daily. Each animal in the 4 DNBS groups and in the single parallel saline group was sacrificed 5 days post irritant. Laparotomies and colectomies were performed and animals were scored for the presence and severity of intestinal adhesions, strictures, inflammation, and ulceration. Colon: body weight ratios were determined and tissue was examined histologically.

Series [3] deals with DNBS colitis. Nature of the series: Study AA-PH-003: oral and rectal APAZA and sulfasalazine in DNBS colitis. In kind it is in vivo, male Lewis rats. The conditions noted are these: for Colonic Inflammation Scores: scale 0-2. On the set-up: Average Diarrhea Score Day 3: scale not given here. On the procedure: Study AA-PH-003 was designed to evaluate the anti-inflammatory efficacy of oral and rectal doses of APAZATM and sulfasalazine in the DNBS colitis model in rats. […] Thirty-five adult male Lewis rats (body weight 200-250 g) were studied. […] Animal body weights and incidence of diarrhea were recorded daily. […] Animals in the DNBS groups and the parallel deionized water group were sacrificed on day 5. Laparotomies and colectomies were performed and animals were scored for the presence and severity of intestinal adhesions, strictures, inflammation, and ulceration. Colon: body weight ratios were determined and colon histopathology was performed.

Another series has as its system DSS induced colitis. The series is described as follows: Dextran sulfate sodium (DSS) colitis in the rat. As to conditions: oral gavage bid. In kind it is in vivo, Sprague-Dawley rats. The method, then:
The effectiveness of APAZA™ and sulfasalazine in ameliorating intestinal inflammation in a model of dextran sulfate sodium (DSS) induced colitis in Sprague-Dawley rats was determined. Thirty-six male Sprague-Dawley rats that were 7-8 weeks old and weighed 240-260 g were studied. […] After completion of the treatment period, rats were euthanized and the efficacy of the test drugs in inhibiting colitis was assessed by the following: • Disease Activity Index Scoring: • Body weight • Colon wet weight: body weight ratios • Colonic Myeloperoxidase (MPO) activity • Histopathological changes of the colon

Series [4] in a line: Single oral dose pharmacokinetics of APAZA in dogs. In kind it is in vivo, Beagle dogs. As to conditions: for AUC(0-t) / Cmax / Tmax: Beagle, dog, plasma, single oral dose 1000 mg/kg; for AUC(0-t): read-out: area under the plasma concentration-time curve (AUC0-t); for Cmax: read-out: mean maximum plasma concentration (Cmax); for Tmax: read-out: time to maximum plasma concentration (tmax).

Where [5] appears, read: orally + 30 mg DNBS, APAZA 200 mg/kg, sulfasalazine 265.6 mg/kg.
[6] abbreviates: rectally + 30 mg DNBS, APAZA 200 mg/kg, sulfasalazine 265.6 mg/kg.

`Nc1ccc(CC(=O)O)cc1` [4-APAA, (4-aminophenyl)-acetic acid]: in series [1] (single oral dose of APAZA, male CD-1 mice), the “plasma concentration at 24 hours” value is listed as “below the limit of detection”. For the same compound, in the series with DNBS colitis [2], the “average severity score for necrosis, Adventitia” value is recorded as 1.67; the “average severity score for necrosis, Mucosa” value is recorded as 4.33; the “average severity score for necrosis, Muscularis” value is 3.17; the “average severity score for necrosis, Submucosa” value is 4.00. In the series with DNBS colitis [2], the “reduction in colon:body weight [% BW]” value was ~31% and ~30%; the “reduction of adhesion scores” value was about 25%.
As for `Nc1ccc(O)c(C(=O)O)c1` [5-ASA, 5-amino-2-hydroxy-benzoic acid, reference compound], in the series with DNBS colitis [2], the “average severity score for necrosis, Adventitia” value was determined as 1.67; the “average severity score for necrosis, Mucosa” value is recorded as 4.50; the “average severity score for necrosis, Muscularis” value is 3.5; the “average severity score for necrosis, Submucosa” value worked out at 4.17. In the series with DNBS colitis [2], the “reduction in colon:body weight [% BW]” value was ~31% and ~30%; the “reduction of adhesion scores” value was about 17%.
For the compound `O=C(O)Cc1ccc(/N=N/c2ccc(O)c(C(=O)O)c2)cc1` [APAZA™, 5-(4-carboxymethyl-phenylazo)-2-hydroxy-benzoic acid], the “severity of mucosal ulcers” value in the series with DNBS colitis [3] (compared to tissues from placebo and sulfasalazine treated animals) was “less severe”. Moreover, in the series on DNBS colitis [3] (oral groups), the “reduction relative to control in net colon: body weight (% BW) ratio” value is listed as 23.8%. In addition, in the series with DNBS colitis [3] (setting [5]), the “Average Diarrhea Score Day 3” value is listed as 2, the “Colon Histopathology (# severe lesions)” value amounted to 2, the “Length of Colonic Inflammation (cm)” value was 2.5 cm and the “Mean Body Weight” value was 213.8 g. In addition, in the series with DNBS colitis [3] (setting [5]), the “Mean Colon Length (cm)” value was 12.3 cm, the “Net Colon: Body Weight Ratio” value stood at 0.2309 and the “Colonic Inflammation Scores” value is reported as 1.4. In the series with DNBS colitis [3] (setting [6]), the “Average Diarrhea Score Day 3” value is 2, the “Length of Colonic Inflammation (cm)” value is reported as 1.6 cm, the “Mean Body Weight” value amounted to 218.6 g and the “Mean Colon Length (cm)” value is listed as 12.4 cm. Moreover, in the series on DNBS colitis [3] (setting [6]), the “Net Colon: Body Weight Ratio” value came to 0.1983 and the “Colonic Inflammation Scores” value was determined as 1.3. Besides, in the series on DSS induced colitis (APAZA 100 mg/kg, sulfasalazine 133 mg/kg), the “colon wet weight: body weight ratio, DSS versus DW” value was “no statistically significant difference”. Besides, the “Disease Activity Index (DAI) score” value in the series on DSS induced colitis (rats drinking 5% DSS, APAZA 100 mg/kg, sulfasalazine 133 mg/kg) was 0-1. In the series on DSS induced colitis (rats receiving DSS), the “colonic MPO activity” value was “similar” and the “histological changes of the colon” value is “largely protected”. Further, in series [1] (male, CD-1, mouse, in vivo, po), the total exposure AUC(0-inf) stood at 7430 ng·h/mL, the Cmax came to 5930 ng/mL, the Tmax was 1 h and the half-life is 3.34 h. Moreover, in series [1] (mouse, in vivo, po), the “plasma concentration at 24 hours” value is listed as “below the limit of detection”. For the same compound, in series [4] (female dogs), the AUC(0-t) was 40800 ng·h/mL, the Cmax is 2640 ng/mL and the Tmax is 24 h. For the same compound, in series [4] (male dogs), the AUC(0-t) was determined as 95400 ng·h/mL, the Cmax was found to be 9780 ng/mL and the Tmax was determined as 15 h. In series [4] (single oral dose, 100 to 1000 mg/kg), the “plasma levels versus dose” value is listed as “increased in a dose-related manner”.
